# Laboratory results as given in patent US20240383908A1, “SYNTHESIS AND APPLICATION OF PHOSPHATASE DEGRADER” (HINOVA PHARMACEUTICALS INC., priority 2021, published 2024).
# Structures can show the parent of a compound that is named as a salt.
# Target: T1, SHP2 protein (Homo sapiens, UniProt Q06124)
# T1 sequence (Q06124 1-593): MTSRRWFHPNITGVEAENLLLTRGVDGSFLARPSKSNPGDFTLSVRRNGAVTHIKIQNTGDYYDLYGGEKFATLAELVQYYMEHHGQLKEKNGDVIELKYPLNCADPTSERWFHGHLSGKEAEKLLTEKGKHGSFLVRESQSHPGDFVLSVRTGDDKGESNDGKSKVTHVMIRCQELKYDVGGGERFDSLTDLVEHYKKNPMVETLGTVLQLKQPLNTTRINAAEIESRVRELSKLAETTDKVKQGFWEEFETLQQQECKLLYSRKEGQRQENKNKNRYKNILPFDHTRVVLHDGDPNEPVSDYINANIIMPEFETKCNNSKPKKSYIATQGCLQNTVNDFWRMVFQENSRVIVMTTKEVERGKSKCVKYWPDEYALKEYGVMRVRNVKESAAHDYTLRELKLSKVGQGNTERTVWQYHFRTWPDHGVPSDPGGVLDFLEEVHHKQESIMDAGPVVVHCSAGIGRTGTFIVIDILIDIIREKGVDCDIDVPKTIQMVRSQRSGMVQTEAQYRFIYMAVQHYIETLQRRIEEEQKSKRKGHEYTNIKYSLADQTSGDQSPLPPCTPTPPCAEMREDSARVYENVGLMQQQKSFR
# Test: Degradation activity on SHP2 protein in MIA Paca-2 cells (Western blot, DC50)
# Assay type: cell-based
# Parameters: endogenous in cells; host or cells: MIA Paca-2 cells
# Conditions: read-out: Degradation activity for differenct cell lines MIA Paca-2 (DC50)
# Summary of the method: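 Cells were treated 24 h at 37 °C with compound (0.1–100 nM final, 0.1% DMSO). SHP2 was measured by Western blot with GAPDH as loading control, densitometry normalized to DMSO (100%). DC50, the concentration giving 50% degradation, came from a dose-response fit.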
row,Compound,DC50
1,"C[C@@H]1OCC2(CCN(c3cnc(Sc4cccc(NC(=O)c5ccc(N6CCC(N7CC=C(c8ccc(C(=O)NCc9ccc%10c(c9)CN(C9CCC(=O)NC9=O)C%10=O)nc8F)CC7)CC6)c(F)c5)c4)cn3)CC2)[C@@H]1N (stereo partly drawn) [Compound 483, 1′-(1-(4-((3-((5-((3S,4S)-4-amino-3-methyl-2-oxa-8-azaspiro[4.5]decan-8-yl)pyrazin-2-yl)thio)phenyl)aminoformyl)-2-fluorophenyl)piperidin-4-yl)-N-((2-(2,6-dioxopiperidin-3-yl)-1-oxoisoindol-5-yl)methyl)-2-fluoro-1′,2′,3′,6′-tetrahydro-[3,4′-bipyridine]-6-formamide hydrochloride]",< 0.1 µM
2,CC1(N)CCN(c2cnc(Sc3cccc(NC(=O)c4ccc(N5CCC(N6CCN(c7cnc(C(=O)NCc8ccc9c(c8)CN(C8CCC(=O)NC8=O)C9=O)cc7Cl)CC6)CC5)nc4)c3)cn2)CC1 (stereo not shown) [Compound 484],< 0.1 µM
3,Cc1cc(C(=O)Nc2cccc(Sc3cnc(N4CCC(C)(N)CC4)cn3)c2)cc(C)c1N1CCC(N2CC=C(c3ccc(C(=O)NCc4ccc5c(c4)CN(C4CCC(=O)NC4=O)C5=O)nc3)CC2)CC1 (stereo not shown) [Compound 486],< 0.1 µM
4,Cc1cc(C2=CCN(C3CCN(c4ccc(C(=O)Nc5cccc(Sc6cnc(N7CCC8(CC7)CO[C@@H](C)[C@H]8N)cn6)c5)cc4F)CC3)CC2)ncc1C(=O)NCc1ccc2c(c1)CN(C1CCC(=O)NC1=O)C2=O (stereo partly shown) [Compound 488],< 0.1 µM
5,C[C@@H]1OCC2(CCN(c3cnc(Sc4cccc(NC(=O)C5CCC(N6CC7(CCN(c8ccc(C(=O)NCc9ccc%10c(c9)CN(C9CCC(=O)NC9=O)C%10=O)cn8)C7)C6)CC5)c4)cn3)CC2)[C@@H]1N (stereo partly shown) [Compound 489],> 1 µM
6,C[C@@H]1OCC2(CCN(c3cnc(Sc4cccc(NC(=O)c5ccc(CN6CC7(CCN(c8ccc(C(=O)NCc9ccc%10c(c9)CN(C9CCC(=O)NC9=O)C%10=O)cn8)C7)C6)cc5)c4)cn3)CC2)[C@@H]1N (stereo partly shown) [Compound 490],0.1 to 1 µM
7,CC1(N)CCN(c2cnc(Sc3cccc(NC(=O)c4ccc(N5CCC(N6CCN(c7nnc(C(=O)NCc8ccc9c(c8)CN(C8CCC(=O)NC8=O)C9=O)cc7Cl)CC6)CC5)cc4)c3)cn2)CC1 (stereo not shown) [Compound 491],> 1 µM
8,CC1(N)CCN(c2cnc(Sc3cccc(NC(=O)c4ccc(N5CCC(N6CCN(c7nnc(C(=O)NCc8ccc9c(c8)CN(C8CCC(=O)NC8=O)C9=O)cc7Cl)CC6)CC5)nc4)c3)cn2)CC1 (stereo not shown) [Compound 492],< 0.1 µM
9,CC1(N)CCN(c2cnc(Sc3cccc(NC(=O)c4ccc(N5CCC(N6CCN(c7nnc(C(=O)NCc8ccc9c(c8)CN(C8CCC(=O)NC8=O)C9=O)cc7Cl)CC6)CC5)c(F)c4)c3)cn2)CC1 (stereo not shown) [Compound 493],< 0.1 µM
10,CC1(N)CCN(c2cnc(Sc3cccc(NC(=O)c4ccc(N5CCC(N6CCN(c7nnc(C(=O)NCc8ccc9c(c8)CN(C8CCC(=O)NC8=O)C9=O)cc7Cl)CC6)CC5)cc4F)c3)cn2)CC1 (stereo not shown) [Compound 494],< 0.1 µM
11,Cc1cc(C(=O)Nc2cccc(Sc3cnc(N4CCC(C)(N)CC4)cn3)c2)ccc1N1CCC(N2CCN(c3cnc(C(=O)NCc4ccc5c(c4)CN(C4CCC(=O)NC4=O)C5=O)cc3Cl)CC2)CC1 (stereo not shown) [Compound 495],< 0.1 µM
12,CC1(N)CCN(c2cnc(Sc3cccc(NC(=O)c4ccc(N5CCC(N6CCN(c7cnc(C(=O)NCc8ccc9c(c8)CN(C8CCC(=O)NC8=O)C9=O)cc7Cl)CC6)CC5)c(F)c4)c3)cn2)CC1 (stereo not shown) [Compound 496],< 0.1 µM
13,CC1(N)CCN(c2cnc(Sc3cccc(NC(=O)c4ccc(N5CCC(N6CCN(c7cnc(C(=O)NCc8ccc9c(c8)CN(C8CCC(=O)NC8=O)C9=O)cc7Cl)CC6)CC5)cc4F)c3)cn2)CC1 (stereo not shown) [Compound 497],< 0.1 µM
14,CC1(N)CCN(c2cnc(Sc3cccc(NC(=O)c4ccc(N5CCC(N6CCN(c7ccc(C(=O)NCc8ccc9c(c8)CN(C8CCC(=O)NC8=O)C9=O)nn7)CC6)CC5)nn4)c3)cn2)CC1 (stereo not shown) [Compound 498],0.1 to 1 µM
15,CC1(N)CCN(c2cnc(Sc3cccc(NC(=O)c4ccc(N5CCC(N6CCN(c7ccc(C(=O)NCc8ccc9c(c8)CN(C8CCC(=O)NC8=O)C9=O)cc7F)CC6)CC5)c(F)c4)c3)cn2)CC1 (stereo not shown) [Compound 499],< 0.1 µM
16,CC1(N)CCN(c2cnc(Sc3cccc(NC(=O)c4ccc(N5CCC(N6CCN(c7ccc(C(=O)NCc8ccc9c(c8)CN(C8CCC(=O)NC8=O)C9=O)c(F)c7)CC6)CC5)cc4)c3)cn2)CC1 (stereo not shown) [Compound 502],< 0.1 µM
17,CC1(N)CCN(c2cnc(Sc3cccc(NC(=O)c4ccc(N5CCC(N6CCN(c7ccc(C(=O)NCc8ccc9c(c8)CN(C8CCC(=O)NC8=O)C9=O)c(F)c7)CC6)CC5)c(F)c4)c3)cn2)CC1 (stereo not shown) [Compound 503],< 0.1 µM
18,C[C@@H]1OCC2(CCN(c3cnc(Sc4cccc(NC(=O)c5ccc(C6CC(N7CC=C(c8ccc(C(=O)NCc9ccc%10c(c9)CN(C9CCC(=O)NC9=O)C%10=O)nc8)CC7)C6)cc5)c4)cn3)CC2)[C@@H]1N (stereo partly shown) [Compound 504],< 0.1 µM
19,CC1(N)CCN(c2cnc(Sc3cccc(NC(=O)c4ccc(N5CCC(N6CCC(c7ccc(C(=O)NCc8ccc9c(c8)CN(C8CCC(=O)NC8=O)C9=O)cc7)C(F)C6)CC5)c(F)c4)c3)cn2)CC1 (stereo not shown) [Compound 506],< 0.1 µM
20,Cc1cc(C(=O)Nc2cccc(Sc3cnc(N4CCC(C)(N)CC4)cn3)c2)ccc1N1CCC(N2CCN(c3nnc(C(=O)NCc4ccc5c(c4)CN(C4CCC(=O)NC4=O)C5=O)cc3Cl)CC2)CC1 (stereo not shown) [Compound 507],< 0.1 µM
21,CC1(N)CCN(c2cnc(Sc3cccc(NC(=O)c4ccc(N5CCC(N6CCN(c7cnc(C(=O)NCc8ccc9c(c8)CN(C8CCC(=O)NC8=O)C9=O)cc7Cl)CC6)CC5)cc4)c3)cn2)CC1 (stereo not shown) [Compound 508],< 0.1 µM
22,CC1(N)CCN(c2cnc(Sc3cccc(NC(=O)c4cnc(N5CCC(N6CCN(c7ccc(C(=O)NCc8ccc9c(c8)CN(C8CCC(=O)NC8=O)C9=O)nn7)CC6)CC5)cn4)c3)cn2)CC1 (stereo not shown) [Compound 509],< 0.1 µM
23,C[C@@H]1OCC2(CCN(c3cnc(Sc4cccc(NC(=O)c5ccc(N6CCC(N7CCC(c8ccc(C(=O)NCc9ccc%10c(c9)CN(C9CCC(=O)NC9=O)C%10=O)cc8)C(F)C7)CC6)c(F)c5)c4)cn3)CC2)[C@@H]1N (stereo partly shown) [Compound 510],< 0.1 µM
24,CC1(N)CCN(c2cnc(Sc3cccc(NC(=O)c4ccc(N5CCC(N6CC=C(C7CCC(C(=O)NCc8ccc9c(c8)CN(C8CCC(=O)NC8=O)C9=O)CC7)CC6)CC5)c(F)c4)c3)cn2)CC1 (stereo not shown) [Compound 511],< 0.1 µM
25,C[C@@H]1OCC2(CCN(c3cnc(Sc4cccc(NC(=O)c5ccc(N6CCC(N7CC=C(C8CCC(C(=O)NCc9ccc%10c(c9)CN(C9CCC(=O)NC9=O)C%10=O)CC8)CC7)CC6)c(F)c5)c4)cn3)CC2)[C@@H]1N (stereo partly shown) [Compound 512],0.1 to 1 µM
26,CC1(N)CCN(c2cnc(Sc3cccc(NC(=O)c4ccc(N5CCC(N6CCN(c7ccc(C(=O)NCc8ccc9c(c8)CN(C8CCC(=O)NC8=O)C9=O)cc7F)CC6)CC5)cc4)c3)cn2)CC1 (stereo not shown) [Compound 513],< 0.1 µM
27,C[C@@H]1OCC2(CCN(c3cnc(Sc4cccc(NC(=O)c5ccc(N6CCC(N7CCN(c8ccc(C(=O)NCc9ccc%10c(c9)CN(C9CCC(=O)NC9=O)C%10=O)cc8F)CC7)CC6)c(F)c5)c4)cn3)CC2)[C@@H]1N (stereo partly shown) [Compound 515],< 0.1 µM
28,C[C@@H]1OCC2(CCN(c3cnc(Sc4cccc(NC(=O)c5ccc(N6CCC(N7CC=C(c8ccc(C(=O)NCc9ccc%10c(c9)CN(C9CCC(=O)NC9=O)C%10=O)nc8)CC7)C6)c(F)c5)c4)cn3)CC2)[C@@H]1N (stereo partly shown) [Compound 516],< 0.1 µM
